Laboratory results from patent US20050176755A1, “Aza-bridged-bicyclic amino acid derivatives as alpha4 integrin antagonists” (priority 2003, published 2005).
Like-named read-outs stand apart in the source and are kept apart here.

Key:
human α4β7 = target: T1, human α4β7 (Homo sapiens, UniProt P13612+P26010); experiment: α4β7-K562 Cell Adhesion Assay (α4β7 Mediated Adhesion/VCAM-1); format: cell-based
T1 construct: expressed in transfected cells
T1 sequence (P13612 34-1032): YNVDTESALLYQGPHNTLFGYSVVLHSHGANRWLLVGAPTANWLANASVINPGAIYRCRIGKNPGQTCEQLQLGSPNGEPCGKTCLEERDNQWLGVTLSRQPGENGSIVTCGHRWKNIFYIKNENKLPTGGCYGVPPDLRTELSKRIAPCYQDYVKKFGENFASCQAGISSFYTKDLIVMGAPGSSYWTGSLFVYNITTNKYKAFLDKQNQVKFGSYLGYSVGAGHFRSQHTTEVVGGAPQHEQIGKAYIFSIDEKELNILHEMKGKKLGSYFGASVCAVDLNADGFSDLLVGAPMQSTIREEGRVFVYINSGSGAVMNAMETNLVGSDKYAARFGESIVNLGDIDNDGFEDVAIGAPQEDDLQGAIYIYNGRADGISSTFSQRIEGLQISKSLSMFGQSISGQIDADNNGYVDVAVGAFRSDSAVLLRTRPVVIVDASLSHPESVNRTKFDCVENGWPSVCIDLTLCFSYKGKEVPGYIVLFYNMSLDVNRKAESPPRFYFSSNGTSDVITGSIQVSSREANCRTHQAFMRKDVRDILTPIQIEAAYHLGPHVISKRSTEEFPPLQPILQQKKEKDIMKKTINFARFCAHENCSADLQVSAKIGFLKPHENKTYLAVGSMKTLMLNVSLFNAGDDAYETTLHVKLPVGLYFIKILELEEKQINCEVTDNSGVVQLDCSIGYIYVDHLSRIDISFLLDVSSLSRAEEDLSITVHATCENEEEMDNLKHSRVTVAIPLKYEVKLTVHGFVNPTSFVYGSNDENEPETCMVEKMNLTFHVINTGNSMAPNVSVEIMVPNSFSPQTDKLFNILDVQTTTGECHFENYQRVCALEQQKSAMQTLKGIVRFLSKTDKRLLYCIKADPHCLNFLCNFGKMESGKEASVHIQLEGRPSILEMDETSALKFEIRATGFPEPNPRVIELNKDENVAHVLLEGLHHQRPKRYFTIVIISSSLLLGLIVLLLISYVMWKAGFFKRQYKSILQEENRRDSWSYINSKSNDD
T1 sequence (P26010 20-798): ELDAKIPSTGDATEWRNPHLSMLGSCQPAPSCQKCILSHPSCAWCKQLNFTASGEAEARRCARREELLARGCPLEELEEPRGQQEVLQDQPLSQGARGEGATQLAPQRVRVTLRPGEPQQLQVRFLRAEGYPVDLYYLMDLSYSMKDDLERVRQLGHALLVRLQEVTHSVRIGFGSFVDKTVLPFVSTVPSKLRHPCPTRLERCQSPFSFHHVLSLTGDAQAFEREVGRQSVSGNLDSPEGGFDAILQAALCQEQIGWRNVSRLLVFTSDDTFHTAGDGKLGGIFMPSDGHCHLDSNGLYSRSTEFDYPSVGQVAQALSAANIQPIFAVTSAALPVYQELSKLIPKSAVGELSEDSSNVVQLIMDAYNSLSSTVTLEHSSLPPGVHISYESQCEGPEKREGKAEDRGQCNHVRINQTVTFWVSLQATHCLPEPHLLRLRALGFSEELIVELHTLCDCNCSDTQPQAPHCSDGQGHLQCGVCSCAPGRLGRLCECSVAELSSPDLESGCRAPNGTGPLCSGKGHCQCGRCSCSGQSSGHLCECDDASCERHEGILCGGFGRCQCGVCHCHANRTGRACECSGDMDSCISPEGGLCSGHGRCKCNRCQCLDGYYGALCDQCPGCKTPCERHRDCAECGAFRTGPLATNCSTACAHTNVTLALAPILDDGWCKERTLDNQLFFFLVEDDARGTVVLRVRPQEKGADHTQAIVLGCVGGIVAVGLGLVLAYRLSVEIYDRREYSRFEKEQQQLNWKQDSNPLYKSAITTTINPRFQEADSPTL
Protocol: (§1) α4β7-K562 Cell Adhesion Assay (α4β7 Mediated Adhesion/VCAM-1) Immulon 96 well plates (Dynex) were coated with 100 μL recombinant hVCAM-1 at 4.0 μg/mL in 0.05 M NaCO3 buffer pH 9.0 overnight at 4° C. (R&D Systems). Plates were washed 3 times in PBS with 1% BSA and blocked for 1 h @room temperature in this buffer. PBS was removed and compounds to be tested (50 μL) were added at 2× concentration. A stable cell line of K562 cells expressing human α4β7, (50 μL at 2×10^6/mL) labeled with 5 μM Calcein AM (Molecular Probes) for 1 h at 37° C., were added to each well and allowed to adhere for 1 h at room temperature. Plates were washed 3× in PBS+1% BSA and cells were lysed for 15 minutes in 100 μL of 1 M Tris pH 8.0 with 1% SDS. The plate was read at 485 nm excitation and 530 nm emission.

α4β1 [1] = target: T2, α4β1 (Homo sapiens, UniProt P05556+P13612); experiment: Ramos Cell Adhesion Assay (α4β1 Mediated Adhesion/VCAM-1); format: cell-based; set-up: Ramos Cell Adhesion Assay (α4β1 Mediated Adhesion/VCAM-1); endogenous in cells; host or cells: Ramos cells
Protocol: as §1, with “Ramos” for “α4β7-K562”, “(α4β1” for “(α4β7”, “@ room” for “@room”, “Ramos cells,” for “A stable cell line of K562 cells expressing human α4β7,”

[2] = test system: heterotopic heart allograft; conditions: hyperlipidemic rabbit; cited from earlier work
[3] = test system: oxazolone-induced contact hypersensitivity; conditions: mouse, 6 mg/kg, sc; cited from earlier work
α4β1 [4] = target: T2, α4β1; conditions: background, literature; cited from earlier work
[5] = K562 cells expressing human α4β7, adhesion to recombinant hVCAM-1, read-out: α4β7 IC50
[6] = Ramos cells, adhesion to recombinant hVCAM-1, read-out: α4β1 IC50

T2 sequence (P05556 21-798, one chain of several): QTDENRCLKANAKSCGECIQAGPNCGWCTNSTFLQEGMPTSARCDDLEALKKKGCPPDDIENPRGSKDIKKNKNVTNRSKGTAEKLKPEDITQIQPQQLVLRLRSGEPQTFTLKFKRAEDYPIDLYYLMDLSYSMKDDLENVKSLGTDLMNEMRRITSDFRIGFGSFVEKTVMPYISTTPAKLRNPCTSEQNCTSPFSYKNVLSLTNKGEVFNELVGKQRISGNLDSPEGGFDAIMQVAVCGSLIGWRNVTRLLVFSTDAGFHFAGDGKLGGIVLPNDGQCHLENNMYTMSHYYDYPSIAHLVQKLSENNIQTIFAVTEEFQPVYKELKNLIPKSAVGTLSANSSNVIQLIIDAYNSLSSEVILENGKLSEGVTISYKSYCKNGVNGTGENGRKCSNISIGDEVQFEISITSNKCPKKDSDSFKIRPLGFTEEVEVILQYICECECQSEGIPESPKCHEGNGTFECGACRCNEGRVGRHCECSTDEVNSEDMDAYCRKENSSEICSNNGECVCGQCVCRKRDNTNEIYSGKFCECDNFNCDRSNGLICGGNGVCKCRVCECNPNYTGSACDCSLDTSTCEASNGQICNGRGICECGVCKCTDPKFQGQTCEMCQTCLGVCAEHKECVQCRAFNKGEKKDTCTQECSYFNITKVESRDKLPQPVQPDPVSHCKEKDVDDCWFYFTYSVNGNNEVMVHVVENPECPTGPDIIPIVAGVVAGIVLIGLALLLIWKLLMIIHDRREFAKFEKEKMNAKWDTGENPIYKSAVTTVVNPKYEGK

Compound: O=C(Nc1ccc(CC(NC(=O)C2C3CCC(CC3)N2C(=O)CCO)C(=O)O)cc1)c1c(Cl)cccc1Cl (centres unmarked) [Cpd 9]
- IC50 (human α4β7; [5]): 67 nM
- IC50 (α4β1 [1]; [6]): 135 nM

Compound: NCCC(=O)N1C2CCC(CC2)C1C(=O)NC(Cc1ccc(NC(=O)c2c(Cl)cncc2Cl)cc1)C(=O)O (centres unmarked) [Cpd 15]
- IC50 (human α4β7; [5]): 60 nM
- IC50 (α4β1 [1]; [6]): 29 nM

Compound: Phenylacetyl-Leu-Asp-Phe-D-Pro-NH2
- efficacy in heart allograft model [2]: effective
- efficacy in oxazolone-induced contact hypersensitivity [3]: efficacy similar to the α4 antibody PS/2
- IC50 (α4β1 [4]): 2000 nM

Compound: CS(=O)(=O)CC(=O)N1C2CCC(CC2)C1C(=O)NC(Cc1ccc(NC(=O)c2c(Cl)cncc2Cl)cc1)C(=O)O (centres unmarked) [Cpd 5]
- IC50 (human α4β7; [5]): 32 nM
- IC50 (α4β1 [1]; [6]): 17 nM

Compound: O=C(Nc1ccc(CC(NC(=O)C2C3CCC(CC3)N2C(=O)CSc2ccncc2)C(=O)O)cc1)c1c(Cl)cncc1Cl (centres unmarked) [Cpd 3]
- IC50 (human α4β7; [5]): 6 nM
- IC50 (α4β1 [1]; [6]): 6 nM

Compound: CC(C)(O)CCCC(=O)N1C2CCC(CC2)C1C(=O)NC(Cc1ccc(NC(=O)c2c(Cl)cncc2Cl)cc1)C(=O)O (centres unmarked) [Cpd 11]
- IC50 (human α4β7; [5]): 47 nM
- IC50 (α4β1 [1]; [6]): 14 nM

Compound: O=C(Nc1ccc(CC(NC(=O)C2C3CCC(CC3)N2C(=O)CCc2ccc3c(c2)OCO3)C(=O)O)cc1)c1c(Cl)cccc1Cl (centres unmarked) [Cpd 22]
- IC50 (human α4β7; [5]): 35 nM
- IC50 (α4β1 [1]; [6]): 45 nM

Compound: O=C(Nc1ccc(CC(NC(=O)C2C3CCC(CC3)N2C(=O)CS(=O)(=O)c2ccccc2)C(=O)O)cc1)c1c(Cl)cncc1Cl (centres unmarked) [Cpd 6]
- IC50 (human α4β7; [5]): 27 nM
- IC50 (α4β1 [1]; [6]): 15 nM

Compound: COCCC(=O)N1C2CCC(CC2)C1C(=O)NC(Cc1ccc(OC(=O)N(C)C)cc1)C(=O)O (centres unmarked) [Cpd 14]
- IC50 (human α4β7): 304 nM
- IC50 (α4β1 [1]): 1270 nM

Compound: O=C(Nc1ccc(CC(NC(=O)C2C3CCC(CC3)N2C(=O)CSc2ccccn2)C(=O)O)cc1)c1c(Cl)cncc1Cl (centres unmarked) [Cpd 1]
- IC50 (human α4β7; [5]): 10 nM
- IC50 (α4β1 [1]; [6]): 9 nM

Compound: CN(C)CCC(=O)N1C2CCC(CC2)C1C(=O)NC(Cc1ccc(NC(=O)c2c(Cl)cncc2Cl)cc1)C(=O)O (centres unmarked) [Cpd 16]
- IC50 (human α4β7; [5]): 177 nM
- IC50 (α4β1 [1]; [6]): 23 nM

Compound: O=C(O)C(Cc1ccc(OC(=O)N2CCOCC2)cc1)NC(=O)C1C2CCC(CC2)N1C(=O)CCO (centres unmarked) [Cpd 10]
- IC50 (human α4β7; [5]): 896 nM
- IC50 (α4β1 [1]; [6]): > 1000 nM

Compound: COCCC(=O)N1C2CCC(CC2)C1C(=O)NC(Cc1ccc(NC(=O)c2c(Cl)cncc2Cl)cc1)C(=O)O (centres unmarked) [Cpd 12]
- IC50 (human α4β7; [5]): 117 nM
- IC50 (α4β1 [1]; [6]): 8 nM

Compound: O=C(Nc1ccc(CC(NC(=O)C2C3CCC(CC3)N2C(=O)CCO)C(=O)O)cc1)c1c(Cl)cncc1Cl (centres unmarked) [Cpd 8]
- IC50 (human α4β7; [5]): 6 nM
- IC50 (α4β1 [1]; [6]): 4 nM

Compound: COCCC(=O)Nc1ccc(CC(NC(=O)C2C3CCC(CC3)N2C(=O)CCOC)C(=O)O)cc1 (centres unmarked) [Cpd 13]
- IC50 (human α4β7; [5]): 2370 nM
- IC50 (α4β1 [1]; [6]): > 1000 nM

Compound: O=C(Nc1ccc(CC(NC(=O)C2C3CCC(CC3)N2C(=O)CSc2ccc(F)cc2)C(=O)O)cc1)c1c(Cl)cncc1Cl (centres unmarked) [Cpd 2]
- IC50 (human α4β7; [5]): 20 nM
- IC50 (α4β1 [1]; [6]): 6 nM

Compound: O=C(O)C(Cc1ccc(OC(=O)N2CCOCC2)cc1)NC(=O)C1C2CCC(CC2)N1C(=O)CCc1ccc2c(c1)OCO2 (centres unmarked) [Cpd 23]
- IC50 (human α4β7; [5]): 277 nM
- IC50 (α4β1 [1]; [6]): 217 nM
